In patent US11225484B2, “Substituted octahydropyrrolo[3,4-b]pyrroles as antagonists of the muscarinic acetylcholine receptor M4” (Vanderbilt University, priority 2017, dated 2022) one finds remaining activity and IC50 data, which are given here for 14 molecules.

One experiment has as its target T1, Rat M4 (Rattus norvegicus, UniProt P08485).
T1 construct: expressed in transfected cells; host or cells: CHO-K1 (ATCC), co-transfected with chimeric G protein Gqi5
T1 sequence (P08485 1-478): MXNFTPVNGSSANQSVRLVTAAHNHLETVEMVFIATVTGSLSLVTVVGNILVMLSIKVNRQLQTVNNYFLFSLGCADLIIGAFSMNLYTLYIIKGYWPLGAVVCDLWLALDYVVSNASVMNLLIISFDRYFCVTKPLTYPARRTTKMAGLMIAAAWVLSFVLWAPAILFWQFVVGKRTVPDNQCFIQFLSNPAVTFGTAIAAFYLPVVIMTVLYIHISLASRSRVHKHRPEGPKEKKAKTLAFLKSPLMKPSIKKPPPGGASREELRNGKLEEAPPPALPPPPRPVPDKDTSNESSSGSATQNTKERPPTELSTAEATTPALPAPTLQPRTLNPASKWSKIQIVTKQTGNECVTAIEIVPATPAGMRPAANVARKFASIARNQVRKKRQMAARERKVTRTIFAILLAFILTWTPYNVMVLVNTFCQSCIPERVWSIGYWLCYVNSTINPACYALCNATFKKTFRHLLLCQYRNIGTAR
The experiment can be described thus: mAChR M4 cell-based functional assay (calcium flux, rat M4/Gqi5/CHO cells). The conditions noted are these: for remaining activity at 30 µM: CHO, % ACh maximum at 30 μM, read-out: Emin (%) rat M4; for IC50: antagonist mode, decrease of the response to an EC80 concentration of acetylcholine, CHO-K1 cells with Gqi5. Here is the method: (§1) Human or rat M4 cDNA, along with the chimeric G protein Gqi5, were transfected into Chinese hamster ovary (CHO-K1) cells purchased from the American Type Culture Collection using Lipofectamine2000. M4/Gqi5/CHO cells were grown in Ham's F-12 medium containing 10% heat-inactivated fetal bovine serum (FBS), 20 mM HEPES, 500 μg/mL G418 sulfate, and 200 μg/mL Hygromycin B.
(§2) For high throughput measurement of agonist-evoked increases in intracellular calcium, CHO-K1 cells stably expressing muscarinic receptors were plated in growth medium lacking G418 and hygromycin at 15,000 cells/20 μL/well in Greiner 384-well black-walled, tissue culture (TC)-treated, clear-bottom plates (VWR). Cells were incubated overnight at 37° C. and 5% CO2. The next day, cells were washed using an ELX 405 (BioTek) with assay buffer; the final volume was then aspirated to 20 μL. Next, 20 μL of a 2.3 μM stock of Fluo-4/acetoxymethyl ester (Invitrogen, Carlsbad, Calif.), prepared as a 2.3 mM stock in DMSO and mixed in a 1:1 ratio with 10% (w/v) Pluronic F-127 and diluted in assay buffer, was added to the wells and the cell plates were incubated for 50 min at 37° C. and 5% CO2. Dye was removed by washing with the ELX 405 and the final volume was aspirated to 20 μL. Compound master plates were formatted in a 10 point concentration-response curve (CRC) format (1:3 dilutions) in 100% DMSO with a starting concentration of 10 or 1 mM using a BRAVO liquid handler (Agilent). Test compound CRCs were then transferred to daughter plates (240 nL) using the Echo acoustic plate reformatter (Labcyte, Sunnyvale, Calif.) and then diluted into assay buffer (40 μL) to a 2× stock using a Thermo Fisher Combi (Thermo Fisher Scientific, Waltham, Mass.).
(§3) Calcium flux was measured using the Functional Drug Screening System (FDSS) 6000 or 7000 (Hamamatsu Corporation, Tokyo, Japan) as an increase in the fluorescent static ratio. Compounds were applied to cells (20 μL, 2×) using the automated system of the FDSS at 2 seconds into the protocol and the data were collected at 1 Hz. At 143 s, 10 μL of an EC20 concentration of the muscarinic receptor agonist acetylcholine was added (5×), followed by the addition of 12 μL of an EC80 concentration of acetylcholine at the 268 s time point (5×). Agonist activity was analyzed as a concentration-dependent increase in calcium mobilization upon compound addition. Positive allosteric modulator activity was analyzed as a concentration-dependent increase in the EC20 acetylcholine response. Antagonist activity was analyzed as a concentration-dependent decrease in the EC80 acetylcholine response for the purposes of the tables herein, an IC50 (inhibitory concentration 50) was calculated as a concentration-dependent decrease of the response elicited by an EC80 concentration of acetylcholine, Concentration-response curves were generated using a four-parameter logistical equation in XLFit curve fitting software (IDBS, Bridgewater, N.J.) for Excel (Microsoft, Redmond, Wash.) or Prism (GraphPad Software, Inc., San Diego, Calif.) or the Dotmatics software platform (Dotmatics, Bishop's Stortford, UK).
(§4) Compounds were synthesized as described above. Activity (IC50 and Emin) was determined in the mAChR M4 cell-based functional assay as described above and the data are shown in Table 2. The compound number corresponds to the compound numbers used in Examples 1-3.
In general terms: Calcium assays in cells follow changes in intracellular calcium, usually with a dye or a luminescent sensor.

Another experiment has as its target T2, Human M4 (Homo sapiens, UniProt P08173).
T2 construct: expressed in transfected cells; host or cells: CHO-K1 (ATCC), co-transfected with chimeric G protein Gqi5
T2 sequence (P08173 1-479): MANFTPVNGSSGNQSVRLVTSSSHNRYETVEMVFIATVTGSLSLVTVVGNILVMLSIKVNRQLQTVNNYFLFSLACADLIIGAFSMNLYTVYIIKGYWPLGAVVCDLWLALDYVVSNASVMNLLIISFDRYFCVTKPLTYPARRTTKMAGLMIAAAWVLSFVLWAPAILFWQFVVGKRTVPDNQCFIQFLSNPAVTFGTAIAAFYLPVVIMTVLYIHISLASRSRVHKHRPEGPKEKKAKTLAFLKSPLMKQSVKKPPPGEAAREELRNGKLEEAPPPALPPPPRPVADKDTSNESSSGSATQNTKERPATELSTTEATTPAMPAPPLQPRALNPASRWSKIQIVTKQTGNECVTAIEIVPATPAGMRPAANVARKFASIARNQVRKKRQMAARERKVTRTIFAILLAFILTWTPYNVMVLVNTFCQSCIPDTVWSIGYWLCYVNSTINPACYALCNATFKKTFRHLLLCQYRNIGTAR
The experiment can be described thus: mAChR M4 cell-based functional assay (calcium flux, human M4/Gqi5/CHO cells). The conditions noted are these: for remaining activity at 30 µM: CHO, % ACh maximum at 30 μM, read-out: Emin (%) human M4; for IC50: antagonist mode, decrease of the response to an EC80 concentration of acetylcholine, CHO-K1 cells with Gqi5. The protocol:
as §1, §2, §3, §4

`Cc1cccnc1CN1CC2CCN(c3ccc(-c4c(C)cnn4C)nn3)C2C1` (stereo not shown) [Compound 4, 1-(6-(1,4-dimethyl-1H-pyrazol-5-yl)pyridazin-3-yl)-5-((3-methylpyridin-2-yl)methyl)octahydropyrrolo[3,4-b]pyrrole]: on Rat M4, the remaining activity at 30 µM turned out to be 63.1% and the IC50 was more than 10000 nM. On Human M4, the remaining activity at 30 µM was 26.2% and the half-maximal inhibitory concentration (IC50) was more than 10000 nM.
Take `Cc1cnn(C)c1-c1ccc(N2CCC3CN(CCC(C)c4ccccc4)CC32)nn1` (stereo not shown) [Compound 9, 1-(6-(1,4-dimethyl-1H-pyrazol-5-yl)pyridazin-3-yl)-5-(3-phenylbutyl)octahydropyrrolo[3,4-b]pyrrole]: on Rat M4, the remaining activity at 30 µM was 6.32% and the IC50 came out at 2330 nM. Besides, on Human M4, the remaining activity at 30 µM came out at 4.33% and the IC50 stood at 498 nM.
On the same counts, the results for `Cc1cnn(C)c1-c1ccc(N2CCC3CN(CCC(C)(C)C)CC32)nn1` (stereo not shown) [Compound 20, 1-(6-(1,4-dimethyl-1H-pyrazol-5-yl)pyridazin-3-yl)-5-(3,3-dimethylbutyl)octahydropyrrolo[3,4-b]pyrrole] are 22.7%, more than 10000 nM, 8.8% and 2220 nM.
For `Cc1cnn(C)c1-c1ccc(N2CCC3CN(CCc4ccccc4)CC32)nn1` (stereo not shown) [Compound 6, 1-(6-(1,4-ditnethyl-1H-pyrazol-5-yl)pyridazin-3-yl)-5-phenethyloctahydropyrrolo[3,4-b]pyrrole], on Rat M4, the remaining activity at 30 µM was 30.9% and the 50% inhibitory concentration (IC50) was more than 10000 nM. At Human M4, the remaining activity at 30 µM was determined as 7.19% and the IC50 came out at 1980 nM.
Take `Cc1cnn(C)c1-c1ccc(N2CC[C@H]3CN(CC45CC6CC(CC(C6)C4)C5)C[C@H]32)nn1` [Compound 23, (3aS,6aS)-5-(adamantan-1-ylmethyl)-1-(6-(1,4-dimethyl-1H-pyrazol-5-yl)pyridazin-3-yl)octahydropyrrolo[3,4-b]pyrrole]: the results for the remaining activity at 30 µM at Rat M4 and at Human M4 were 4.52% and 3.91%, respectively. For the same molecule, the IC50 on Rat M4 was 326 nM; on Human M4, 102 nM.
Take `Cc1cnn(C)c1-c1ccc(N2CCC3CN(CC4CCN(Cc5ccccc5)CC4)CC32)nn1` (stereo not shown) [Compound 8, 5-((1-benzylpiperidin-4-yl)methyl)-1-(6-(1,4-dimethyl-1H-pyrazol-5-yl)pyridazin-3-yl)octahydropyrrolo[3,4-b]pyrrole]: the remaining activity at 30 µM at Rat M4 was determined as 32.4%; at Human M4 it was 6.61%. In addition, the concentration for half-maximal inhibition (IC50) is more than 10000 nM on Rat M4 and 3380 nM at Human M4.
As to `Cc1cnn(C)c1-c1ccc(N2CCC3CN(CC(c4ccccc4)c4ccccc4)CC32)nn1` (stereo not shown) [Compound 14, 1-(6-(1,4-dimethyl-1H-pyrazol-5-yl)pyridazin-3-yl)-5-(2,2-diphenylethyl)octahydropyrrolo[3,4-b]pyrrole], on Rat M4, the remaining activity at 30 µM was 48.3% and the IC50 is more than 10000 nM. At Human M4, the remaining activity at 30 µM was found to be 8.96% and the IC50 was found to be 9190 nM.
As for `Cc1nn(C)c(C)c1-c1ccc(N2CCC3CN(CC45CC6CC(CC(C6)C4)C5)CC32)nn1` (stereo not shown) [Compound 19, 5-(adamantan-1-ylmethyl)-1-(6-(1,3,5-trimethyl-1H-pyrazol-4-yl)pyridazin-3-yl)octahydropyrrolo[3,4-b]pyrrole], on Rat M4, the remaining activity at 30 µM turned out to be 4.41% and the 50% inhibitory concentration (IC50) was 365 nM. Besides, at Human M4, the remaining activity at 30 µM came out at 3.18% and the 50% inhibitory concentration (IC50) was determined as 129 nM.
Take `Cc1cnn(C)c1-c1ccc(N2CCC3CN(CC45CC6CC(CC(C6)C4)C5)CC32)nn1` (stereo not shown) [Compound 1, 5-(Adamantan-1-ylmethyl)-1-(6-(1,4-dimethyl-1H-pyrazol-5-y)pyridazin-3-yl)octahydropyrrolo[3,4-b]pyrrole]: at Rat M4, the remaining activity at 30 µM amounted to 4.61% and the half-inhibitory concentration (IC50) is 509 nM.
With `CCc1ccncc1-c1ccc(N2CCC3CN(CC45CC6CC(CC(C6)C4)C5)CC32)nn1` (stereo not shown) [Compound 15, 5-(adamantan-1-ylmethyl)-1-(6-(4-ethylpyridin-3-yl)pyridazin-3-yl)octahydropyrrolo[3,4-b]pyrrole], the remaining activity at 30 µM at Rat M4 was determined as 3.98%; on Human M4, 4.18%. Besides, the IC50 at Rat M4 stood at 1710 nM; on Human M4, 899 nM.
On the same counts, the results for `Cc1cnn(C)c1-c1ccc(N2CC[C@@H]3CN(CC45CC6CC(CC(C6)C4)C5)C[C@@H]32)nn1` [Compound 21, (3aR,6aR)-5-(adamantan-1-ylmethyl)-1-(6-(1,4-dimethyl-1H-pyrazol-5-yl)pyridazin-3-yl)octahydropyrrolo[3,4-b]pyrrole] are 3.71%, 4.08%, 601 nM and 147 nM.
On the same counts, the results for `Cc1cnn(C)c1-c1ccc(N2CCC3CN(CC4C5CC6CC(C5)CC4C6)CC32)nn1` (stereo not shown) [Compound 10, 5-(adamantan-2-ylmethyl)-1-(6-(1,4-dimethyl-1H-pyrazol-5-yl)pyridazin-3-yl)octahydropyrrolo[3,4-b]pyrrole] are 4.82%, 4.12%, 1890 nM and 453 nM.
On the same counts, the results for `Cc1cnn(C)c1-c1ccc(N2CCC3CN(CC(C)c4ccccc4)CC32)nn1` (stereo not shown) [Compound 11, 1-(6-(1,4-dimethyl-1H-pyrazol-5-yl)pyridazin-3-yl)-5-(2-phenylpropyl)octahydropyrrolo[3,4-b]pyrrole] are 55.5%, 15.1%, more than 10000 nM and more than 10000 nM.
Regarding `Cc1cnn(C)c1-c1ccc(N2CCC3CN(Cc4ccccc4)CC32)nn1` (stereo not shown) [Compound 5, 5-benzyl-1-(6-(1,4-dimethyl-1H-pyrazol-5-yl)pyridazin-3-yl)octahydropyrrolo[3,4-b]pyrrole], at Human M4, the remaining activity at 30 µM was 46.7% and the IC50 was more than 10000 nM.

For orientation: IC50 means the concentration needed to halve the response being measured.
